According to patent US9796711B2, “Substituted pyrazolo[3,4-b]pyridin-6-carboxylic acids and method of use” (AbbVie S.àr.l., priority 2015, dated 2017):
Where two headings read alike, the source gives them in different places.

Target: T1, ΔF508-CFTR (Homo sapiens, UniProt P13569, DEL508-508)
T1 construct: host or cells: CFBE41o-, doxycycline-inducible
Experiment: CFTR cell surface levels using HRP-tagged ΔF508-CFTR expressing CFBE cells, intrinsic corrector capacity
Format: cell-based
Conditions: 20 hours at 33° C.; for EC50: read-out: EC50
Source text: Measuring CFTR Cell Surface Levels Using HRP-Tagged AF508-CFTR Expressing CFBE Cells
The HRP-tagged AF508-CFTR cell assay measures the expression of CFTR-ΔF508 at the plasma membrane. CFTR-ΔF508 has a folding defect leading to absence of protein at the plasma membrane. This assay is used to evaluate the capacity of compounds to increase the expression of CFTR-ΔF508 at the plasma membrane. The CFTR-ΔF508 is tagged with HRP (horse radish peroxidase enzyme) within the ECL4 (Extracellular loop 4) of CFTR (Phuan, P.-W. et al. Synergy-based small-molecule screen using a human lung epithelial cell line yields AF508-CFTR correctors that augment VX-809 maximal efficacy. Mol. Pharmacol. 86, 42-51 (2014)). When HRP-tagged AF508-CFTR is present at the plasma membrane, the HRP enzyme activity can be measured. The amount of CFTR-ΔF508 that can be rescued to the plasma membrane is correlated with the amount of functional enzyme that can be measured.
There are several ways to measure the capacity of compounds to rescue CFTR-ΔF508 to the plasma membrane; either compounds are evaluated on their own and the impact on plasma membrane levels is measured or compounds are evaluated in combination with a co-corrector, i.e. a compound that rescues CFTR-ΔF508 to the plasma membrane but rescue can be enhanced by addition of compounds due to a complementary mode of action.
Activity of Compounds for their Intrinsic Corrector Capacity:
For this purpose doxycycline-inducible AF508-CFTR-HRP expressing CFBE4lo-cells (obtained from Gergely Lukacs, McGill University) were maintained in MEM (Gibco; 31095) supplemented with 10% fetal bovine serum (Hyclone; SV30160.03) under puromycin (3 μg/mL) and G418 selection (0.2 mg/mL). For compound testing, cells were seeded at 4000 cells/well in white 384-well plates (Greiner; 781080) in 50 μL medium containing 0.5 μg/mL doxycycline and incubated for 68 hours at 37° C., 5% CO2. On day four, 10 μL test compounds diluted in PBS were added to the plates at a final DMSO concentration of 0.1%. All compound plates contained negative controls (DMSO) and positive controls (3 μM corrector, 3-[(2R,4R)-4-({[1-(2,2-difluoro-1,3-benzodioxol-5-yl)cyclopropyl]carbonyl}amino)-7-methoxy-3,4-dihydro-2H-chromen-2-yl]benzoic acid). Cell plates were incubated at 33° C., 5% CO2 for 20 hours. On day five, the cells were washed five times with phosphate-buffered saline, and HRP activity was assayed by the addition of 50 μL/well of HRP substrate (SuperSignal™ West Pico Chemiluminescent Substrate, Thermo Scientific; 34080). After incubation for 15 minutes in the dark, chemiluminescence was measured using a plate reader (EnVision®, Perkin Elmer). Raw data were normalized to percentage activity values using the equation: 100×(Sample−Negative control)/(Positive control−Negative Control).

[1] = HRP-tagged ΔF508-CFTR CFBE41o- cells, compounds alone (intrinsic corrector capacity), positive control 3 μM corrector
[2] = HRP-tagged ΔF508-CFTR CFBE41o- cells, compounds alone (intrinsic corrector capacity)
[3] = HRP-tagged ΔF508-CFTR CFBE cells, compound alone (intrinsic corrector capacity)

T1 sequence (P13569 with tags, fused parts or gaps DEL508-508): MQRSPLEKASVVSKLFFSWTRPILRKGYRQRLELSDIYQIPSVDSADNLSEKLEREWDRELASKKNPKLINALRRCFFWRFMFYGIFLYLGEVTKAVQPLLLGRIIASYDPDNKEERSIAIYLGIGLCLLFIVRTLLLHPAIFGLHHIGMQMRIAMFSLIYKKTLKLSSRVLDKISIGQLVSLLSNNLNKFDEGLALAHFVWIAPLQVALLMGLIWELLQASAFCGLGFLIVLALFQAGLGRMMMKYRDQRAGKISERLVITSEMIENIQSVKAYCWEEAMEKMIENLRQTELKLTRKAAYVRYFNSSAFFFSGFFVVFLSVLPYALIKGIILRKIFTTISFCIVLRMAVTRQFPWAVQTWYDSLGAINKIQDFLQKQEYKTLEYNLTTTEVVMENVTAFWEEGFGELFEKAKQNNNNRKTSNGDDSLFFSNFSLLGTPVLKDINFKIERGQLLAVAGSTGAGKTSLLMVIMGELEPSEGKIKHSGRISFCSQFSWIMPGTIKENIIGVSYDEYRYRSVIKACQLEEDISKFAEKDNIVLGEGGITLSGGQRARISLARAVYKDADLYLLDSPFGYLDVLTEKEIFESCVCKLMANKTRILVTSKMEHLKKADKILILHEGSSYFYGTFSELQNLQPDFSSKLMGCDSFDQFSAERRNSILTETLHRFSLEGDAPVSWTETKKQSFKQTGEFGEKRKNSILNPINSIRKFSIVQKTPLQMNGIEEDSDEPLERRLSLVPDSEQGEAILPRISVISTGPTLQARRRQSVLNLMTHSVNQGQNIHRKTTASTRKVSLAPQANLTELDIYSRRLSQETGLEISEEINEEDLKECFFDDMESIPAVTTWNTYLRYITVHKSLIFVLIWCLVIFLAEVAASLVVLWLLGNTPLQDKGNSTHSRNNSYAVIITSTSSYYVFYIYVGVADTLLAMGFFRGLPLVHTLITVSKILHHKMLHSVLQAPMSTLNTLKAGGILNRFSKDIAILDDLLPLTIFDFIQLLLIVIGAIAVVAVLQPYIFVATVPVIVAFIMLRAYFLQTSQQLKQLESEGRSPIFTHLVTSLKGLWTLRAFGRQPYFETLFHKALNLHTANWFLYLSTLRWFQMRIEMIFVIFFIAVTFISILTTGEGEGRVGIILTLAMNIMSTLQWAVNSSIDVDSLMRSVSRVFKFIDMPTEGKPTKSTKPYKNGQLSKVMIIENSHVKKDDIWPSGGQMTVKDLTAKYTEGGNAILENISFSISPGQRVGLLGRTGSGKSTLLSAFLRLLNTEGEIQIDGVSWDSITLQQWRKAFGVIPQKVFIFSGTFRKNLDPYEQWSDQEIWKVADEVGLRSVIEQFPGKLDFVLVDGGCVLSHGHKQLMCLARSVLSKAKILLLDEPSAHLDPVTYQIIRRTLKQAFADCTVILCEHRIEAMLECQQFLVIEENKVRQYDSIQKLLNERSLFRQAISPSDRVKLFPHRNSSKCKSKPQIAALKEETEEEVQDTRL

Compound	% Activation [1] [%]	EC50 [2] [µM]	% Activation [3] [%]	EC50 [3] [µM]
CC(C)c1nn(-c2cccc(C#N)c2)c2nc(C(=O)O)cc(-c3ccc(N4CCOCC4)cc3)c12 [compound 49, 1-(3-cyanophenyl)-4-[4-(morpholin-4-yl)phenyl]-3-(propan-2-yl)-1H-pyrazolo[3,4-b]pyridine-6-carboxylic acid]	107	1.11		
COc1cc(-n2nc(C)c3c(-c4ccc(N5CCOCC5)cc4)cc(C(=O)O)nc32)ccn1 [compound 51, 1-(2-methoxypyridin-4-yl)-3-methyl-4-[4-(morpholin-4-yl)phenyl]-1H-pyrazolo[3,4-b]pyridine-6-carboxylic acid]	41.22	1.18		
COc1cc(F)cc(-n2nc(C)c3c(-c4ccc(N5CCOCC5)cc4)cc(C(=O)O)nc32)c1 [compound 52, 1-(3-fluoro-5-methoxyphenyl)-3-methyl-4-[4-(morpholin-4-yl)phenyl]-1H-pyrazolo[3,4-b]pyridine-6-carboxylic acid]	87.35	2.68		
Cc1nn(-c2ccccc2)c2nc(C(=O)O)cc(-c3ccc(N4CCN(S(C)(=O)=O)CC4)cc3)c12 [compound 53, 4-{4-[4-(methanesulfonyl)piperazin-1-yl]phenyl}-3-methyl-1-phenyl-1H-pyrazolo[3,4-b]pyridine-6-carboxylic acid]	72.97	3.34		
CNC(=O)c1nn(-c2ccccc2)c2nc(C(=O)O)cc(-c3ccc(N4CCOCC4)cc3)c12 [compound 55, 3-(methylcarbamoyl)-4-[4-(morpholin-4-yl)phenyl]-1-phenyl-1H-pyrazolo[3,4-b]pyridine-6-carboxylic acid]	0.088	> 10		
CC(C)(CO)c1nn(-c2ccccc2)c2nc(C(=O)O)cc(-c3ccc(N4CCOCC4)cc3)c12 [compound 56, 3-(1-hydroxy-2-methylpropan-2-yl)-4-[4-(morpholin-4-yl)phenyl]-1-phenyl-1H-pyrazolo[3,4-b]pyridine-6-carboxylic acid]	53.1	3.34		
Cc1nn(-c2ccnc(F)c2)c2nc(C(=O)O)cc(-c3ccc(N4CCOCC4)cc3)c12 [compound 57, 1-(2-fluoropyridin-4-yl)-3-methyl-4-[4-(morpholin-4-yl)phenyl]-1H-pyrazolo[3,4-b]pyridine-6-carboxylic acid]	68.57	3.34		
Cc1nn(-c2cc[nH]c(=O)c2)c2nc(C(=O)O)cc(-c3ccc(N4CCOCC4)cc3)c12 [compound 58, 3-methyl-4-[4-(morpholin-4-yl)phenyl]-1-(2-oxo-1,2-dihydropyridin-4-yl)-1H-pyrazolo[3,4-b]pyridine-6-carboxylic acid]	4.754	> 10		
Cc1nn(-c2cccc(C(N)=O)c2)c2nc(C(=O)O)cc(-c3ccc(N4CCOCC4)cc3)c12 [compound 59, 1-(3-carbamoylphenyl)-3-methyl-4-[4-(morpholin-4-yl)phenyl]-1H-pyrazolo[3,4-b]pyridine-6-carboxylic acid]	13.69	> 10		
CC(C)COC(=O)N1CCN(c2cc(C(=O)O)nc3c2c(C2CCC2)nn3-c2ccc(F)cc2)CC1 [compound 930, 3-cyclobutyl-1-(4-fluorophenyl)-4-{4-[(2-methylpropoxy)carbonyl]piperazin-1-yl}-1H-pyrazolo[3,4-b]pyridine-6-carboxylic acid]			434.3	0.24
